Results published in patent US20080045537A1, “Chemical Compounds” (priority 2004, published 2008).
Read-outs that look alike come from different tables or passages of the source.

How the values were obtained:
T-tropic HIV = details: patients that are dual tropic or have only the T-tropic form of the virus; cited from earlier work
human CXCR4 = biological target: T1, human CXCR4 (Homo sapiens, UniProt P61073); experiment: Functional FLIPR assay (block of SDF-1 alpha induced [Ca2+]i change); type: cell-based; details: HEK-293 cells with human CXCR4 BacMam and Gqi5 BacMam; antagonism of SDF-1 alpha; read-out: Functional assay (pIC50) (converted)
T1 construct: expressed in transfected cells; host or cells: HEK-293 cells (stably expressing human macrophage scavenging receptor) transduced with human CXCR4 BacMam and Gqi5 BacMam baculoviruses
Protocol: Human embryonic kidney (HEK-293) cells were maintained and harvested as described above. Cells were plated in 96-well, black clear bottom, poly-lysine coated plates at a concentration of 40,000 cells per well in a final volume of 100 ul containing human CXCR4BacMam (MOI=25) and Gqi5 BacMam (MOI=12.5). The cells were incubated at 37° C., 5% CO2, 95% humidity for 24 h to allow for protein expression.
After the required incubation time the cells were washed once with 50 ul of fresh serum-free DMEM/F12 media containing probenicid. 50 ul of dye solution was then added to the cells (Calcium Plus Assay Kit Dye; Molecular Devices) was dissolved in 200 ml of the above probenicid/BSA containing media and incubated for 1 h. Cell plates were transferred to a Fluorometric Imaging Plate Reader (FLIPR). Upon addition the effect of the compounds on the change in [Ca^2+]i was examined to determine if the compounds were agonists or antagonists (ability to block SDF-1 alpha activity) at the CXCR4 receptor. IC50 values are determined and pKb values are calculated using the Leff and Dougall equation: KB=IC50/((2+([agonist]/EC50ˆb)ˆ1/b−1) Where IC50 is that defined by the antagonist concentration-response curve [agonist] is the EC80 concentration of agonist used EC50 is that defined by the agonist concentration-response curve b is the slope of the agonist concentration-response curve.

[1] = system: HIV-1 IIIB (T-tropic, CXCR4 utilizing); experiment: HOS HIV-1 infectivity assay; type: cell-based
Method in brief: (§1)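 Cells were plated and left 24 h, after which compound was added for 1 h. Virus at about 2 million RLU per well followed, with 96 h further incubation at 37 °C, 5% CO2. Luciferase activity was then measured with Steady-Glo, and uninfected-culture viability with CellTiter-Glo.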

[2] = system: HIV-1 gp160 (from the HXB2 HIV strain); experiment: Cell/cell fusion assay (HEK-293 expressing HIV-1 tat, rev, gp160 with HOS hCXCR4/hCCR5/hCD4/pHIV-LTR-luciferase cells); type: cell-based; details: Human immunodeficiency virus 1, HXB2, HEK293, 24 h, read-out: Fusion assay (pIC50), luciferase readout after 24 h (converted)
From the text: The complete coding sequences of HIV-1 tat (GenBank Accession No. X07861) and rev (GenBank Accession No. M34378) were cloned into pcDNA3.1 expression vectors containing G418 and hygromycin resistance genes, respectively. The complete coding sequence of the HIV-1 (HXB2 strain) gp160 envelope gene (nucleotide bases 6225-8795 of GenBank Accession No. K03455) was cloned into plasmid pCRII-TOPO. The three HIV genes were additionally inserted into the baculovirus shuttle vector, pFastBacMam1, under the transcriptional control of the CMV promoter. A construction of the pHIV-I LTR containing mutated NFkB sequences linked to the luciferase reporter gene was prepared by digesting pcDNA3.1, containing the G418 resistance gene, with Nru I and Bam HI to remove the CMV promoter. LTR-luc was then cloned into the Nru I/Bam HI sites of the plasmid vector. Plasmid preparations were performed after the plasmids were amplified in Escherichia coli strain DH5-alpha. The fidelity of the inserted sequences was confirmed by double-strand nucleotide sequencing using an ABI Prism Model 377 automated sequencer.
Recombinant BacMam baculoviruses were constructed from pFastBacMam shuttle plasmids by using the bacterial cell-based Bac-to-Bac system. Viruses were propagated in Sf9 (Spodoptera frugiperda) cells cultured in Hink's TNM-FH Insect media supplemented with 10% (v/v) fetal bovine serum and 0.1% (v/v) pluronic F-68 according to established protocols.
Human osteosarcoma (HOS) cells that naturally express human CXCR4 were transfected with human CCR5, human CD4 and the pHIV-LTR-luciferase plasmid using FuGENE 6 transfection reagent. Single cells were isolated and grown under selection condition in order to generate a stable HOS (hCXCR4/hCCR5/hCD4/pHIV-LTR-luciferase) clonal cell line. The cells were maintained in Dulbeccos modified Eagles media supplemented with 10% fetal calf serum (FCS), G418 (400 ug/ml), puromycin (1 ug/ml), mycophenolic acid (40 ug/ml), xanthine (250 ug/ml) and hypoxanthine (13.5 ug/ml) to maintain a selection pressure for cells expressing the LTR-luciferase, hCCR5 and hCD4, respectively. Human embryonic kidney (HEK-293) cells stably transfected to express the human macrophage scavenging receptor (Class A, type 1; GenBank Accession No. D90187), were maintained in DMEM/F-12 media (1:1) supplemented with 10% FCS and 1.5 ug/ml puromycin. The expression of this receptor by the HEK-293 cells enhances their ability to stick to tissue culture treated plasticware.
HEK-293 cells were harvested using enzyme-free cell dissociation buffer. The cells were resuspended in DMEM/F-12 media supplemented with 10% FCS and 1.5 ug/ml and counted. Tranductions were performed by direct addition of BacMam baculovirus containing insect cell media to cells. The cells were simultaneously transduced with BacMam baculovirus expressing HIV-1 tat, HIV-1 rev and HIV-1 gp160 (from the HXB2 HIV strain). Routinely an MOI of 10 of each virus was added to the media containing the cells. 2 mM butyric acid was also added to the cells at this stage to increase protein expression in transduced cells. The cells were subsequently mixed and seeded into a flask at 30 million cells per T225. The cells were incubated at 37° C., 5% CO2, 95% humidity for 24 h to allow for protein expression.
HEK and HOS cells were harvested in DMEM/F-12 media containing 2% FCS and DMEM media containing 2% FCS, respectively, with no selection agents added. Compounds were plated as 1 ul spots in 100% DMSO on a 96-well CulturPlate plates. HOS cells (50 ul) were added first to the wells, followed immediately by the HEK cells (50 ul). The final concentration of each cell type was 20,000 cells per well. Following these additions, the cells were returned to a tissue culture incubator (37° C.; 5% CO2/95% air) for an additional 24 h.
Following the 24 h incubation, total cellular luciferase activity was measured using the LucLite Plus assay kit (Packard, Meridien, Conn.). […]

[3] = Compound cytotoxicity in the absence of virus addition (CellTiter-Glo); type: cell-based; details: human; non-infected HOS cultures; read-out: Cytotox (pIC50) (converted)
Method in brief: as §1

[4] = Human immunodeficiency virus 1, IIIB, as determined by the infectivity assay, strain not stated in Table 2, read-out: Activity Level
[5] = Human immunodeficiency virus 1, HIV-1 IIIB, HOS cells, 96 h, luciferase readout, read-out: HOS (3B)

T1 sequence (P61073 whole entry): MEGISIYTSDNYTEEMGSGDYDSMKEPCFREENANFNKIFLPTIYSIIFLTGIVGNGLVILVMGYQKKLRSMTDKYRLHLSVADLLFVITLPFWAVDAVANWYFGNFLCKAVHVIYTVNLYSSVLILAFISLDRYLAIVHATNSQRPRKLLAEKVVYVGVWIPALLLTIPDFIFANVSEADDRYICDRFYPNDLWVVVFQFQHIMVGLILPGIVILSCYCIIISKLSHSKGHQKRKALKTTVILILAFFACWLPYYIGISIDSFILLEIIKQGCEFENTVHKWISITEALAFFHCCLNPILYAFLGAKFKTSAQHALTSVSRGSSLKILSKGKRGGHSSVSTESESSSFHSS

Compound	T-tropic HIV viral load (T-tropic HIV)	IC50 (human CXCR4) [µM]	IC50 [1, 4] [µM]	IC50 [1, 5] [µM]	IC50 [2] [µM]	IC50 at 96 h [3] [µM]	IC50 ([1]; as determined by the infectivity assay, strain not stated in Table 2, read-out: Activity Level) [µM]
c1cc(CN2CCCNCCNCCCNCC2)ccc1CN1CCCNCCNCCCNCC1 [AMD-3100]	significantly reduce T-tropic HIV viral load						
CN(Cc1nc2cccc(C(=O)NCCCCN)c2[nH]1)C1CCCc2cccnc21 (stereo not drawn) [Example 11, N-(4-Aminobutyl)-2-{[methyl(5,6,7,8-tetrahydro-8-quinolinyl)amino]methyl}-1H-benzimidazole-4-carboxamide]		0.257	0.1 to 0.5	0.395	0.741	> 100	
CCN(Cc1nc2cc(C(=O)NCCN)ccc2[nH]1)C1CCCc2cccnc21 (stereo not drawn) [Example 14, N-(2-Aminoethyl)-2-{[ethyl(5,6,7,8-tetrahydro-8-quinolinyl)amino]methyl}-1H-benzimidazole-5-carboxamide]		0.339	0.1 to 0.5	0.44	2.57	> 100	
CN(Cc1nc2cccc(C(=O)NCCc3cnc[nH]3)c2[nH]1)C1CCCc2cccnc21 (stereo not drawn) [Example 23, N-[2-(1H-Imidazol-4-yl)ethyl]-2-{[methyl(5,6,7,8-tetrahydro-8-quinolinyl)amino]methyl}-1H-benzimidazole-4-carboxamide]		0.0135	< 0.1	0.018	0.158	> 100	
CN(Cc1nc2c(C(N)=O)cccc2[nH]1)C1CCCc2cccnc21 (stereo not drawn) [Example 25, 2-{[Methyl(5,6,7,8-tetrahydro-8-quinolinyl)amino]methyl}-1H-benzimidazole-4-carboxamide]		0.174	0.1 to 0.5	0.143	0.275	> 100	
CN(Cc1nc2cc(CN)ccc2[nH]1)C1CCCc2cccnc21 (stereo not drawn) [Example 17, N-{[5-(Aminomethyl)-1H-benzimidazol-2-yl]methyl}-N-methyl-5,6,7,8-tetrahydro-8-quinolinamine]		0.257	0.5 to 10	1.36	1.29	> 100	
CN(Cc1nc2c(C(=O)N3CCC(N)CC3)cccc2[nH]1)C1CCCc2cccnc21 (stereo not drawn) [Example 30, N-({4-[(4-Amino-1-piperidinyl)carbonyl]-1H-benzimidazol-2-yl}methyl)-N-methyl-5,6,7,8-tetrahydro-8-quinolinamine]		2		0.075	0.407	> 100	< 0.1
CN(Cc1nc2c(C(=O)N3CCNCC3)cccc2n1C)C1CCCc2cccnc21 (stereo not drawn) [Example 10, N-Methyl-N-{[1-methyl-4-(1-piperazinylcarbonyl)-1H-benzimidazol-2-yl]methyl}-5,6,7,8-tetrahydro-8-quinolinamine]		1.41	0.5 to 10	0.84	1.91	> 100	
